Measured values as given in US20070270403A1 (priority 2003, published 2007).
Where two headings read alike, the source gives them in different places.

Legend:
[1] = independent of the rate of metabolism; cited from earlier work
[2] = system: Sprague-Dawley laboratory rats; assay: Locomotor activity (ambulations) by infrared photobeams (clozapine studies); format: in vivo, Sprague-Dawley Rattus Norvegicus; details: Acute, clozapine 20 mg/kg i.p. + cocaine 10 mg/kg i.p.
Excerpt: Locomotor activity (ambulation) was monitored with infrared photobeams at the same time as DA and 5-HT release in NAcc was detected with BRODERICK PROBES® in conjunction with In Vivo Microvoltammetry. The chamber was faradaic, covered with copper to refract possible electrical artifacts (dimensions: 24 in (width) by 18 in (depth) by 23.5 in (height)). A 16 by 16 array of these infrared photobeams, were held in place by an aluminum frame which was situated ¾ in above the Plexiglas floor of the chamber to detect locomotor activity. Photobeams were sampled by a Pentium computer to define the x-y position of the animal within a 1.5 in resolution every 100 msec. When an x-y position was calculated, it was used to define the frequency of locomotor activity in counts. The locomotor activity system is a modified version of an Activity Pattern Monitor (APM) (San Diego Instruments, San Diego, Calif.). Behavioral data is presented in absolute frequency, i.e., number of counts recorded.
The first hr pre-drug allowed exploratory behavior. Exploratory behavior is defined as open-field behavior of ambulations (forward locomotion) wherein animals respond to the stimuli of a novel environment with high frequency of behavioral counts. The second hr pre-drug allowed the animal to become habituated before treatment.
In the Acute studies, each drug was administered at the end of the habituation period. Baseline (control) values were taken every five min for the last thirty min of the habituation period at which time drug injection(s) took place. Electrochemical recordings for DA and 5-HT release in NAcc, were continued for two hrs; at the same time, locomotor behavior continued to be monitored and recorded with infrared photobeams. At the end of the 2 hr drug(s) study, animals were then placed back in their home cages.
In the Subacute studies, which took place twenty-four hrs later, the animals were again placed in the faradaic behavioral chamber and no further drug was administered. Recordings of separate electrochemical signals for DA and 5-HT release in NAcc, were taken for one hr; at the same time, locomotor behavior was monitored and recorded with infrared photobeams.
Neurochemical and behavioral data, derived from the last thirty minutes of the habituation period, provided the baseline data. […] Where appropriate, data points in the time course were subjected to 95% Confidence Limits (C.L.).

[3] = cited from earlier work
[4] = system: DA release in NAcc; assay: In vivo microvoltammetry, DA release in NAcc (clozapine studies); design: species or system Sprague-Dawley Rattus Norvegicus; details: Acute, clozapine 20 mg/kg i.p. + cocaine 10 mg/kg i.p.
Experimental: (§1) There is an increasing awareness that a psychosis, similar to that of schizophrenic psychosis, can be derived from cocaine addiction. […] Release mechanisms for monoamines, were determined by using a depolarization blocker, gamma-butyrolactone (γBL). […] Acute and Subacute studies were performed for each treatment group.
(§2) The stereotaxic equipment was purchased from David Kopf Instruments, Tujunga, Calif. A Ag/AgCl reference electrode was placed in contact with dura, 7 mm anteriorally and contralaterally to the indicator microelectrode. A stainless steel auxiliary microelectrode was placed in contact with dura. BRODERICK PROBE® microelectrodes were manufactured on site.
(§3) In vivo microvoltammetric studies on conscious Sprague-Dawley laboratory rats were begun nine to fifteen days after the aseptic surgical operations were performed. On each experimental day, the animal was placed in a Plexiglas-copper faradaic chamber. The three-microelectrode assembly, enclosed within the animal's prosthetic acrylic cap, was connected to a CV37 detector by means of a mercury commutator (Br. Res. Instr., Princeton, N.J.), a flexible cable, and a mating connector (BJM Electronics, Staten Island, N.Y.). The CV37 detector was electrically connected to a Minigard surge suppresser (Jefferson Electric, Magnetek, N.Y.) which was then connected to an electrical ground in isolation. […] Each animal was used as its own control. Changes in synaptic concentrations of DA and 5-HT are presented as percent change (% of control) in order to minimize normal between-animal variations. […] In vivo microvoltammetric scans were recorded in sec and repeated every five min for a period of 2 hrs before each treatment and a period of two hrs after each treatment.
(§4) Potentials were applied with a CV37 detector (BAS, West Lafayette, Ind.). Potentials were applied from −0.2V to +0.4V with respect to a Ag/AgCl (1M NaCl) electrode, at a scan rate of 10 mV/sec at time constants of 5 and 1 tau. One scan was completed in 60 sec. Non-faradaic charging current was eliminated in the first 25 sec.
(§5) Calibration curves were determined experimentally, in vitro, in a freshly prepared deoxygenated physiological saline-phosphate buffer solution (0.01 M, pH=7.4). We use ultra pure Nitrogen (N2) (T. W. Smith Corp., Bklyn, N.Y.) to deoxygenate the buffer solution. […] Calibration studies were also performed in freshly prepared deoxygenated buffer solutions containing phosphotidylethanolamine (PEA), combined with bovine serum albumin (BSA) (Sigma Aldrich, St. Louis, Mo.), a solution which closely mimics brain constituents. […] Detection limits for basal synaptic concentrations of DA and 5-HT in NAcc were 12 nM and 2 nM respectively.

[5] = system: 5-HT release in NAcc; assay: In vivo microvoltammetry, 5-HT release in NAcc (clozapine studies); design: species or system Sprague-Dawley Rattus Norvegicus; details: Acute, clozapine 20 mg/kg i.p. + cocaine 10 mg/kg i.p.
Experimental: as §1, §2, §3, §4, §5

[6] = cited from earlier work; remark: listed apart in the source

Q: For `Cc1nc2n(c(=O)c1CCN1CCC(c3noc4cc(F)ccc34)CC1)CCCC2O` (centres unmarked) [9-hydroxyrisperidone], which “Time for which the metabolite is active” value [1] is on record?
A: The value was 22 h.

Q: With `CN1CCN(C2=Nc3cc(Cl)ccc3Nc3ccccc32)CC1` [Clozapine, clozapine] as the compound, how does the “Average reduction of locomotor activity (ambulation counts) produced by cocaine” value ([2]; first half hr) read?
A: Its value is 500 counts.

Q: What about the “Average reduction of locomotor activity (ambulation counts) produced by cocaine” value ([2]; next hr of study) of the same compound?
A: Its value is 150 counts.

Q: What about the half-life ([3]; at higher doses) of the same compound?
A: The half-life was 4 to 66 h.

Q: What about the half-life ([3]; at lower doses) of the same compound?
A: The half-life was 8 h.

Q: What about the “Average reduction of cocaine-induced increases in DA release in NAcc” value ([4]; first hr of study) of the same compound?
A: The value was 40%.

Q: What about the “Average reduction of cocaine-induced increases in DA release in NAcc” value ([4]; second hr of study) of the same compound?
A: Its value is 50%.

Q: What about the “Average reduction of cocaine-induced increases in 5-HT release in NAcc” value ([5]; first hr of study) of the same compound?
A: The value was 138%.

Q: What about the “Average reduction of cocaine-induced increases in 5-HT release in NAcc” value ([5]; second hr of study) of the same compound?
A: Its value is 113%.

Q: With `CN1[C@H]2CC[C@@H]1[C@@H](C(=O)O)[C@@H](OC(=O)c1ccccc1)C2` [benzoylecgonine] as the compound, how does the elimination half-life ([6]; after bolus injections (e.g., 14.7 umol/kg)) read?
A: Its elimination half-life is 0.667 to 0.733 h.

Q: Which Detection in brain ([6]; after i.v. cocaine (20-40 mg/kg)) does the source give for `COC(=O)[C@H]1[C@@H](OC(=O)c2ccccc2)C[C@@H]2CC[C@H]1N2` [norcocaine] here?
A: Its Detection in brain is “not detected at all”.
